In article PMC8120209, “Longitudinal evaluation of a novel BChE PET tracer as an early in vivo biomarker in the brain of a mouse model for Alzheimer disease” (Theranostics, 2021):

How the values were obtained:
[1] = target: T1, 5-HT1B (antagonist radioligand) (Rattus norvegicus, UniProt P28564); experiment: biochemical; conditions: read-out: % Inhibition of Control Specific Binding Mean
T1 construct: gene Htr1b

[2] = target: T2, MAO-A (antagonist radioligand) (Rattus norvegicus, UniProt P21396); experiment: biochemical; conditions: read-out: % Inhibition of Control Specific Binding Mean
T2 construct: gene Maoa
T2 sequence (P21396 whole entry): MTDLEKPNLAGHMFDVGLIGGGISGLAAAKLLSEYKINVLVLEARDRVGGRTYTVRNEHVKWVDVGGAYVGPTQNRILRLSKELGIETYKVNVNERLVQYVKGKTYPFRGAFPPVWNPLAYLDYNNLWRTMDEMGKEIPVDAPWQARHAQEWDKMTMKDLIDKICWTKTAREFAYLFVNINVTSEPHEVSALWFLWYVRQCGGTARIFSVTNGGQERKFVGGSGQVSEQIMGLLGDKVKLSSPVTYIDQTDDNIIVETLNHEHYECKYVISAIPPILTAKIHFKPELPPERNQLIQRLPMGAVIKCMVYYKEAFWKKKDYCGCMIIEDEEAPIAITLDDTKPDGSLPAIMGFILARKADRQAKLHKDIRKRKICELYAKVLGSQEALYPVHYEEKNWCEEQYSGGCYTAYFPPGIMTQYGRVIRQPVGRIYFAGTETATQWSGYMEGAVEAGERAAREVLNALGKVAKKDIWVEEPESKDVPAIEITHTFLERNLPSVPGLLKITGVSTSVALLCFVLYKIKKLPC

[3] = target: AR(h) (agonist radioligand) (Homo sapiens, UniProt P10275); experiment: biochemical; conditions: read-out: % Inhibition of Control Specific Binding Mean
[4] = target: T3, 5-HT1D (agonist radioligand) (Rattus norvegicus, UniProt P28565); experiment: biochemical; conditions: read-out: % Inhibition of Control Specific Binding Mean
T3 construct: gene Htr1d

CB2(h) = target: T4, CB2(h) (Homo sapiens, UniProt P34972); experiment: biochemical; parameters: Eurofins SafetyScreen44 radioligand displacement, inhibition of control specific binding; conditions: read-out: % Inhibition of Control Specific Binding, Mean
T4 construct: gene CNR2

GR (h) = target: T5, GR (h) (Homo sapiens, UniProt P04150); experiment: biochemical; parameters: Eurofins SafetyScreen44 radioligand displacement, inhibition of control specific binding; conditions: read-out: % Inhibition of Control Specific Binding, Mean
T5 construct: gene NR3C1
T5 sequence (P04150 whole entry): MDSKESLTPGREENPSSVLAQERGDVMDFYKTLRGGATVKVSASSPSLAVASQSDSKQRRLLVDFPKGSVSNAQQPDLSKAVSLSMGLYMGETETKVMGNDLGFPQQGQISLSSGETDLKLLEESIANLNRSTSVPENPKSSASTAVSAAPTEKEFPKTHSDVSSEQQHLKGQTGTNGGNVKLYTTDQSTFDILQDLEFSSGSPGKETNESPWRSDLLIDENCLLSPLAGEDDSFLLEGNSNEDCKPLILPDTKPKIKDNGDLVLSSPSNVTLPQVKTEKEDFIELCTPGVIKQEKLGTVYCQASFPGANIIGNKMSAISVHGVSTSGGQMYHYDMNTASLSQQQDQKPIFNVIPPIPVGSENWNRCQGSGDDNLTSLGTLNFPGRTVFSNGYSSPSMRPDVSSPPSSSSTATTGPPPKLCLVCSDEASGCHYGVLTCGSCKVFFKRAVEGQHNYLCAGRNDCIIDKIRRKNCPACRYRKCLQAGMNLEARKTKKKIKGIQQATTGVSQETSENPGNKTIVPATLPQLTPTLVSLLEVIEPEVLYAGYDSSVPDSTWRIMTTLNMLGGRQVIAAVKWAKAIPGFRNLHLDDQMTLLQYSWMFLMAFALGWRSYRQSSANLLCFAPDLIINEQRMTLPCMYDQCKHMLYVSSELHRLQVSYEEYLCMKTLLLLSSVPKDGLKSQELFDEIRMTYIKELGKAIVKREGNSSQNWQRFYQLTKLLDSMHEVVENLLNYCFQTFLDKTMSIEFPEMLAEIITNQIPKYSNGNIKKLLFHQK

adrenergic receptor α2A = target: T6, adrenergic receptor α2A (Homo sapiens, UniProt P08913); experiment: SafetyScreen44 panel (Eurofins), single concentration […]; conditions: read-out: % inhibition at 10 μM
T6 construct: gene ADRA2A

µ-opioid receptor = target: T7, µ-opioid receptor (Rattus norvegicus, UniProt P33535); experiment: [3H]DAMGO radioligand displacement in rat cortex homogenates; format: binding
T7 construct: gene Oprm1; rat cortex homogenates
T7 sequence (P33535 whole entry): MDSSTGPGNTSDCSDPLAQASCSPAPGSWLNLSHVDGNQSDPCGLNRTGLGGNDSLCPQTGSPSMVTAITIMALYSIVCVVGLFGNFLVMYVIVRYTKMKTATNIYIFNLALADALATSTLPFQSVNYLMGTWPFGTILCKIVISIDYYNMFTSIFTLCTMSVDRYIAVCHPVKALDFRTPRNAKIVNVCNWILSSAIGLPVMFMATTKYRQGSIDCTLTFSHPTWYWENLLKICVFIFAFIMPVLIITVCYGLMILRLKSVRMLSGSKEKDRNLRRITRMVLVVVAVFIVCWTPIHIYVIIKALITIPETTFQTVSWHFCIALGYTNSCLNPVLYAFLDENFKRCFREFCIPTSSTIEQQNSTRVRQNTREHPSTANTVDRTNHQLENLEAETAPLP

[5] = target: T8, Potassium Channel hERG (human) (Homo sapiens, UniProt Q12809); experiment: in vitro; parameters: Eurofins SafetyScreen44 radioligand displacement, inhibition of control specific binding; conditions: read-out: % Inhibition of Control Specific Binding, Mean
T8 construct: gene KCNH2

N muscle-type (h) = target: T9, N muscle-type (h) (Homo sapiens, UniProt P02708); experiment: biochemical; parameters: Eurofins SafetyScreen44 radioligand displacement, inhibition of control specific binding; conditions: read-out: % Inhibition of Control Specific Binding, Mean
T9 construct: gene CHRNA1

β1(h) = target: T10, β1(h) (Homo sapiens, UniProt P08588); experiment: biochemical; parameters: Eurofins SafetyScreen44 radioligand displacement, inhibition of control specific binding; conditions: read-out: % Inhibition of Control Specific Binding, Mean
T10 construct: gene ADRB1

M4(h) = target: T11, M4(h) (Homo sapiens, UniProt P08173); experiment: biochemical; parameters: Eurofins SafetyScreen44 radioligand displacement, inhibition of control specific binding; conditions: read-out: % Inhibition of Control Specific Binding, Mean
T11 construct: gene CHRM4
T11 sequence (P08173 whole entry): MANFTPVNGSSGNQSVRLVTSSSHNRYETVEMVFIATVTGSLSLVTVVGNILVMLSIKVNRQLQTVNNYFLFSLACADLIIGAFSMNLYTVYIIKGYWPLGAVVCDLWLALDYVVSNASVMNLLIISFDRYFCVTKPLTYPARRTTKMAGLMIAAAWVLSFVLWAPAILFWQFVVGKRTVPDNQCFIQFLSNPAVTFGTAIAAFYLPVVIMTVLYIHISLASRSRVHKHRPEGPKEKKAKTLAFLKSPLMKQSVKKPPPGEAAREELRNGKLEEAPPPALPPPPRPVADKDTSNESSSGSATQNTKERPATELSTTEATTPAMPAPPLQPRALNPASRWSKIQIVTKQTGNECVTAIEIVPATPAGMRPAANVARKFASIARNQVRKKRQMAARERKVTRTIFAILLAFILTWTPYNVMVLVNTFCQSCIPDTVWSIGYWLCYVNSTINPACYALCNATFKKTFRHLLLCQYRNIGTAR

D5(h) = target: T12, D5(h) (Homo sapiens, UniProt P21918); experiment: biochemical; parameters: Eurofins SafetyScreen44 radioligand displacement, inhibition of control specific binding; conditions: read-out: % Inhibition of Control Specific Binding, Mean
T12 construct: gene DRD5
T12 sequence (P21918 whole entry): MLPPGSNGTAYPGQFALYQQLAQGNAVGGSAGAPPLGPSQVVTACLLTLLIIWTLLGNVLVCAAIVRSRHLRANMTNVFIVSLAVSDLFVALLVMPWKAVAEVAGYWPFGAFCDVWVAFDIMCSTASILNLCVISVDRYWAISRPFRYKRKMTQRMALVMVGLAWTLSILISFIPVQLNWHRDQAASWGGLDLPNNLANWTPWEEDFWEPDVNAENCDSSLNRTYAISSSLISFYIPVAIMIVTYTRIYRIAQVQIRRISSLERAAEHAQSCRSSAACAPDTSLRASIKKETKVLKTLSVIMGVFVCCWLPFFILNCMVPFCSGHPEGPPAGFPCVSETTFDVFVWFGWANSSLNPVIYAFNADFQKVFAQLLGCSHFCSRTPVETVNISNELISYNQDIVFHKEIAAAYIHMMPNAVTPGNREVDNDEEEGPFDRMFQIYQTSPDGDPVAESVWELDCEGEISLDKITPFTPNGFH

CCK1 (CCKA) (h) = target: T13, CCK1 (CCKA) (h) (Homo sapiens, UniProt P32238); experiment: biochemical; parameters: Eurofins SafetyScreen44 radioligand displacement, inhibition of control specific binding; conditions: read-out: % Inhibition of Control Specific Binding, Mean
T13 construct: gene CCKAR

5-HT1A(h) = target: T14, 5-HT1A(h) (Homo sapiens, UniProt P08908); experiment: biochemical; parameters: Eurofins SafetyScreen44 radioligand displacement, inhibition of control specific binding; conditions: read-out: % Inhibition of Control Specific Binding, Mean
T14 construct: gene HTR1A
T14 sequence (P08908 whole entry): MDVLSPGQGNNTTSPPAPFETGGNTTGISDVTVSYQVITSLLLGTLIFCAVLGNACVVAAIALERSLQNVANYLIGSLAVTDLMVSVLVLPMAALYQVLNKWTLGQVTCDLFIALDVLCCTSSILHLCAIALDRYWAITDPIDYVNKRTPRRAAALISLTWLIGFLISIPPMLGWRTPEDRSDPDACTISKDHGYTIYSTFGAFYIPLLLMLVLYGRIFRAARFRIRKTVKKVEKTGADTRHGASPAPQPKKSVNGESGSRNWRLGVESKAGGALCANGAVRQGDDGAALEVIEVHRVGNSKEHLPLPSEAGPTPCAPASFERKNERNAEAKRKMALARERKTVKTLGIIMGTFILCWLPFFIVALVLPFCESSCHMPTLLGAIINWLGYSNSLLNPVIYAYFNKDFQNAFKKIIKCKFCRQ

5-HT7 (h) = target: T15, 5-HT7 (h) (Homo sapiens, UniProt P34969); experiment: biochemical; parameters: Eurofins SafetyScreen44 radioligand displacement, inhibition of control specific binding; conditions: read-out: % Inhibition of Control Specific Binding, Mean
T15 construct: gene HTR7
T15 sequence (P34969 whole entry): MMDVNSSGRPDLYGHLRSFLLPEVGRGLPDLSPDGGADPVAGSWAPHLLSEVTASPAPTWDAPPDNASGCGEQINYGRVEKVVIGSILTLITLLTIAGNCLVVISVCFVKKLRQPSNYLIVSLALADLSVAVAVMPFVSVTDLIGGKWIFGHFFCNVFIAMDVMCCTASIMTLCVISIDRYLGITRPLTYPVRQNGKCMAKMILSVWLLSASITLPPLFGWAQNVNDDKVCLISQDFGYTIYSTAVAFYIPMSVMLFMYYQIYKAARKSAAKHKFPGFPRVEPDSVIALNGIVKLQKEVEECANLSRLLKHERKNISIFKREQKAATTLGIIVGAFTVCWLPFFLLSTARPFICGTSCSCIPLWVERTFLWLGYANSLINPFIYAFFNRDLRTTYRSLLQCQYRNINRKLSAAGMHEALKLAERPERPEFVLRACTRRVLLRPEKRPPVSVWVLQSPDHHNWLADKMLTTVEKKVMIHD

kappa (h) (KOP) = target: T16, kappa (h) (KOP) (Homo sapiens, UniProt P41145); experiment: biochemical; parameters: Eurofins SafetyScreen44 radioligand displacement, inhibition of control specific binding; conditions: read-out: % Inhibition of Control Specific Binding, Mean
T16 construct: gene OPRK1

N neuronal α4β2 (h) = target: T17, N neuronal α4β2 (h) (Homo sapiens, UniProt P17787+P43681); experiment: biochemical; parameters: Eurofins SafetyScreen44 radioligand displacement, inhibition of control specific binding; conditions: read-out: % Inhibition of Control Specific Binding, Mean
T17 construct: gene CHRNB2

M2 (h) = target: T18, M2 (h) (Homo sapiens, UniProt P08172); experiment: biochemical; parameters: Eurofins SafetyScreen44 radioligand displacement, inhibition of control specific binding; conditions: read-out: % Inhibition of Control Specific Binding, Mean
T18 construct: gene CHRM2

β2(h) = target: T19, β2(h) (Homo sapiens, UniProt P07550); experiment: biochemical; parameters: Eurofins SafetyScreen44 radioligand displacement, inhibition of control specific binding; conditions: read-out: % Inhibition of Control Specific Binding, Mean
T19 construct: gene ADRB2
T19 sequence (P07550 whole entry): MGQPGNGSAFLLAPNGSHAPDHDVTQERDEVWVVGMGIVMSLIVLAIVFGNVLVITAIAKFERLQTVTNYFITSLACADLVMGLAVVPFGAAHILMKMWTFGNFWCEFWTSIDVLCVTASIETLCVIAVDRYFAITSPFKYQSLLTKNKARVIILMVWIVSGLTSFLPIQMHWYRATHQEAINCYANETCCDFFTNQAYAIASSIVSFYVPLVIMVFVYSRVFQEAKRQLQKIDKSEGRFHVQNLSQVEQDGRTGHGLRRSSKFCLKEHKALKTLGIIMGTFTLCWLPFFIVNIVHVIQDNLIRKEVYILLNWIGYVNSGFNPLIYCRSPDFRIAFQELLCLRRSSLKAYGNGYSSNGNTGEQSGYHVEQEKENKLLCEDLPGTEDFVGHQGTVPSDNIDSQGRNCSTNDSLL

5-HT6 (h) = target: T20, 5-HT6 (h) (Homo sapiens, UniProt P50406); experiment: biochemical; parameters: Eurofins SafetyScreen44 radioligand displacement, inhibition of control specific binding; conditions: read-out: % Inhibition of Control Specific Binding, Mean
T20 construct: gene HTR6
T20 sequence (P50406 whole entry): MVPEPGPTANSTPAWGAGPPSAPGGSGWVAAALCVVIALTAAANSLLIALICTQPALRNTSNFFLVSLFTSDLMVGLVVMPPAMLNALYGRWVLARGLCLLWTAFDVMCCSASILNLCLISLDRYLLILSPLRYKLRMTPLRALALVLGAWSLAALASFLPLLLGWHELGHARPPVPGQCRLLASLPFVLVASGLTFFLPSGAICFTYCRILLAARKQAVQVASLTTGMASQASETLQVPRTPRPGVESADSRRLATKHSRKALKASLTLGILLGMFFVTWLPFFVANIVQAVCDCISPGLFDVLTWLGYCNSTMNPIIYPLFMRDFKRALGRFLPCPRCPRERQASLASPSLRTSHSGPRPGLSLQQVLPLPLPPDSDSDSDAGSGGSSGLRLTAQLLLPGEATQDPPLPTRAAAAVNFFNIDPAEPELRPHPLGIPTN

CB1(h) = target: T21, CB1(h) (Homo sapiens, UniProt P21554); experiment: biochemical; parameters: Eurofins SafetyScreen44 radioligand displacement, inhibition of control specific binding; conditions: read-out: % Inhibition of Control Specific Binding, Mean
T21 construct: gene CNR1

A2A(h) = target: T22, A2A(h) (Homo sapiens, UniProt P29274); experiment: biochemical; parameters: Eurofins SafetyScreen44 radioligand displacement, inhibition of control specific binding; conditions: read-out: % Inhibition of Control Specific Binding, Mean
T22 construct: gene ADORA2A

D1(h) = target: T23, D1(h) (Homo sapiens, UniProt P21728); experiment: biochemical; parameters: Eurofins SafetyScreen44 radioligand displacement, inhibition of control specific binding; conditions: read-out: % Inhibition of Control Specific Binding, Mean
T23 construct: gene DRD1

[6] = target: T24, norepinephrine transporter(h) (Homo sapiens, UniProt P23975); experiment: biochemical; parameters: Eurofins SafetyScreen44 radioligand displacement, inhibition of control specific binding; conditions: read-out: % Inhibition of Control Specific Binding, Mean
T24 construct: gene SLC6A2

Lck kinase (h) = Lck kinase (h) (Homo sapiens, UniProt P06239); experiment: biochemical; parameters: Eurofins SafetyScreen44 enzyme assays, inhibition of control specific activity; conditions: read-out: % Inhibition of Control Values, Mean
Sequence of Lck kinase (h) (P06239 whole entry): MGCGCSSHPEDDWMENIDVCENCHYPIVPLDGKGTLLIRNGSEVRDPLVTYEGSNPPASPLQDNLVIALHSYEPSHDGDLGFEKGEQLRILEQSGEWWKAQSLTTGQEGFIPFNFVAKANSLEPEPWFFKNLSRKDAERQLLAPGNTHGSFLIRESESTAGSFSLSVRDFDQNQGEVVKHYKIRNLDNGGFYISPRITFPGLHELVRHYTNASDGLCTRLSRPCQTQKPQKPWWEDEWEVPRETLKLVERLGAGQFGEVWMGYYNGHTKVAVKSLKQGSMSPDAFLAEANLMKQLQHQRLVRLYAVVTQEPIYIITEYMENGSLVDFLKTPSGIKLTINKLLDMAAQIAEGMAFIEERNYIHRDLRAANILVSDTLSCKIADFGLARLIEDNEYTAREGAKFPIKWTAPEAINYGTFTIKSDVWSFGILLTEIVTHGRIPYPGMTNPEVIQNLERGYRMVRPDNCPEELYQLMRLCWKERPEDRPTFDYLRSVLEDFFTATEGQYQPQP

M3(h) = target: T25, M3(h) (Homo sapiens, UniProt P20309); experiment: biochemical; parameters: Eurofins SafetyScreen44 radioligand displacement, inhibition of control specific binding; conditions: read-out: % Inhibition of Control Specific Binding, Mean
T25 construct: gene CHRM3

COCCN(CC1CCCN(Cc2ccccc2)C1)S(=O)(=O)c1ccc2ccccc2c1 (racemic) [compound 4, (±)N-((1-benzylpiperidin-3-yl)methyl)-N-(2-methoxyethyl)naphthalene-2-sulfonamide]
inhibition at 10 µM [1]: -12.8%
inhibition at 10 µM [2]: -0.2%
inhibition at 10 µM [3]: -6.6%
inhibition at 10 µM [4]: 33%
inhibition at 10 µM (CB2(h)): 17.6%
inhibition at 10 µM (GR (h)): 4.7%
inhibition at 10 µM (adrenergic receptor α2A): 60.9%
Ki (µ-opioid receptor): 1800 nM
inhibition at 10 µM [5]: 84.8%
inhibition at 10 µM (N muscle-type (h)): 23%
inhibition at 10 µM (β1(h)): 4.5%
inhibition at 10 µM (M4(h)): 63.2%
inhibition at 10 µM (D5(h)): 24.2%
inhibition at 10 µM (CCK1 (CCKA) (h)): 21.9%
inhibition at 10 µM (5-HT1A(h)): 96.2%
inhibition at 10 µM (5-HT7 (h)): 84.3%
inhibition at 10 µM (kappa (h) (KOP)): 26.1%
inhibition at 10 µM (N neuronal α4β2 (h)): -17.7%
inhibition at 10 µM (M2 (h)): 85.7%
inhibition at 10 µM (β2(h)): 10.5%
inhibition at 10 µM (5-HT6 (h)): 87.1%
inhibition at 10 µM (CB1(h)): -44.4%
inhibition at 10 µM (A2A(h)): 20.5%
inhibition at 10 µM (D1(h)): 32.4%
inhibition at 10 µM [6]: 34.1%
inhibition at 10 µM (Lck kinase (h)): 52.7%
inhibition at 10 µM (M3(h)): 35.2%
